# Patent publication US8188008B2, “Herbicidally and insecticidally active 4-phenyl-substituted pyridazinones” (Bayer Cropscience AG, priority 2008, dated 2012)
# System: green peach aphid (Myzus persicae)
# Test: Myzus test (MYZUPE spray treatment)
# Assay type: in vivo
# Details: spray treatment of Chinese cabbage discs, application rate 500 g/ha; 100% = all aphids killed
# Experimental: Myzus Test (MYZUPE Spray Treatment) [table] To produce a suitable preparation of active compound, 1 part by weight of active compound is mixed with the stated amounts of solvents and emulsifier, and the concentrate is diluted with emulsifier-containing water to the desired concentration. Discs of Chinese cabbage (Brassica pekinensis) which are infested by all stages of the green peach aphid (Myzus persicae) are sprayed with an active compound preparation of the desired concentration. After the desired period of time, the effect in % is determined. 100% means that all aphids have been killed; 0% means that none of the aphids have been killed.
structure (smiles),measurement,value
Cn1ncc(O)c(-c2ccc(Cl)c(Cl)c2)c1=O [I-1-a-4],effect in % (aphids killed),at least 80%
